Legend:
[1] = test system: Rabbit Psoas myofibrils (skeletal myosin ATPase); assay: Myofibril ATPase assay, rabbit psoas (skeletal) myofibrils; assay type: biochemical; settings: rabbit psoas myofibrils
In short: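 Readout: A340 decline from NADH oxidation, PK/LDH-coupled to ADP release; kinetic reads over 75 min. Buffer: pCa (PIPES, CaCl2, EGTA), pH 7.0. Linear-regression slopes vs vehicle, 4PL fit; reported as concentration giving 75% (Y75) or 125% (Y125) of vehicle activity.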

[2] = test system: Porcine atria myofibrils (atrial myosin ATPase); assay: Myofibril ATPase assay, porcine atria myofibrils; assay type: biochemical; settings: porcine atria myofibrils
In short: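 Coupled PK-LDH readout, NADH loss at 340 nm, kinetic 75 min. Porcine atria myofibrils, pCa buffer (PIPES/CaCl2/EGTA, pH 7.0). Slopes (mAU/min) normalized to vehicle = 100%, 4-parameter fit; Y75 or Y125 reported.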

[3] = molecular target: T1, Porcine ventricle myofibrils (ventricular myosin ATPase) (Sus scrofa, UniProt P79293); assay: Myofibril ATPase assay, porcine ventricle myofibrils; assay type: biochemical, porcine (Yucatan minipigs); settings: porcine ventricle myofibrils
T1 construct: Myofibrils from porcine cardiac muscle was isolated from the left ventricle of Yucatan minipigs; tissue Exemplar Genetics; host or cells: left ventricle of Yucatan minipigs, myofibrils prepared in house
T1 sequence (P79293 whole entry): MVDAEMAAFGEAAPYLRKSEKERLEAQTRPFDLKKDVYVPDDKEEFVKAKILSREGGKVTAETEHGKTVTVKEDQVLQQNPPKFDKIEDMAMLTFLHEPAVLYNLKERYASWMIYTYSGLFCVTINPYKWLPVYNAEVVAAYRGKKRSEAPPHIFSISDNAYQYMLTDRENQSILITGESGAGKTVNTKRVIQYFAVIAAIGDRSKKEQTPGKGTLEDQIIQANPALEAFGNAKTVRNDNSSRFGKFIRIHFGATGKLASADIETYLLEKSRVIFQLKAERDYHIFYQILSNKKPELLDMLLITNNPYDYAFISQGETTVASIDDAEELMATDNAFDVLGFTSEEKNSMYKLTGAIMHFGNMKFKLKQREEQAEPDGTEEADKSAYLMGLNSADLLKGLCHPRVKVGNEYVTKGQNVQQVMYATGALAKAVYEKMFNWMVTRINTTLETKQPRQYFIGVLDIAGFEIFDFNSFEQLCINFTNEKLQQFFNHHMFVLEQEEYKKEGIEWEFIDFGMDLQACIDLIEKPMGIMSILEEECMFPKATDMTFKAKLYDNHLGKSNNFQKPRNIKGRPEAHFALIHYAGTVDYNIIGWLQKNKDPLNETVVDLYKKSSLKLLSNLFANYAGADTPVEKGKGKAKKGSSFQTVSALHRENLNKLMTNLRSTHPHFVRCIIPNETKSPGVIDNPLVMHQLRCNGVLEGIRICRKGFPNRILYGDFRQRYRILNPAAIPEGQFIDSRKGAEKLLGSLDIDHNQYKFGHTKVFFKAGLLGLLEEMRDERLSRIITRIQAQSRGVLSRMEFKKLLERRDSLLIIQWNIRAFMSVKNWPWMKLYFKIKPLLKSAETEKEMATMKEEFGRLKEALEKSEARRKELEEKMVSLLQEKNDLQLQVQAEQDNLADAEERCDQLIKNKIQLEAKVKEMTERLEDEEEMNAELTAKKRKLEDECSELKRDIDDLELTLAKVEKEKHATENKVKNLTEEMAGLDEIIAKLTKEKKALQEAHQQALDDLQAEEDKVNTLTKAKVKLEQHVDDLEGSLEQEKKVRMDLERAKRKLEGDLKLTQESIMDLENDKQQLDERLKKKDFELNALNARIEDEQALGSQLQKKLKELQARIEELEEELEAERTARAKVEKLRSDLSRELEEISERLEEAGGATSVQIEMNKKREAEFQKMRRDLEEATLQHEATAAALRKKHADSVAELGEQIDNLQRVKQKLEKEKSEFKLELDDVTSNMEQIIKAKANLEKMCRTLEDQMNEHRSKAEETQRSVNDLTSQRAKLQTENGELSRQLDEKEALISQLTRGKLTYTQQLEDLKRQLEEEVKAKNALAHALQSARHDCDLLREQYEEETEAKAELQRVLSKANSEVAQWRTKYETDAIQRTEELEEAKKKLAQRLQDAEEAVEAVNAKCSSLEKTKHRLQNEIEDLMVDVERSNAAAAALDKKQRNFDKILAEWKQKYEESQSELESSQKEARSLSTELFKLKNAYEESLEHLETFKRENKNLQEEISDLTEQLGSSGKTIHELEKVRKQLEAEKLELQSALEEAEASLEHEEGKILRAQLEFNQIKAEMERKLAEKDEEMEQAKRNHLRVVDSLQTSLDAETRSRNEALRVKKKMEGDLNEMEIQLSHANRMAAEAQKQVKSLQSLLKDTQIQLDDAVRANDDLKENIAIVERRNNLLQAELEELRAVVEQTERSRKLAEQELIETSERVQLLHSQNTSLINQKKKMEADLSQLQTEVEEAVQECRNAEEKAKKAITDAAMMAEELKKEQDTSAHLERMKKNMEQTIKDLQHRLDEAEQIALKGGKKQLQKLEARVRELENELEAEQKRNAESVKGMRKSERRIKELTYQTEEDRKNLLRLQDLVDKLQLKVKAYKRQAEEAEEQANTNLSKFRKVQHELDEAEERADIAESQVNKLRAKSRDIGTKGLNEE
In short: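 Test compounds acted on myofibrils isolated from the left ventricle of Yucatan minipigs. ADP formation was coupled via pyruvate kinase/lactate dehydrogenase to NADH oxidation, monitored kinetically at 340 nm over 75 min. Rates relative to vehicle were fitted with a 4-parameter logistic model, reported as Y75 (25% inhibition) or Y125 (activation) concentrations.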

[4] = Y75 value (75% activity relative to no compound)
[5] = ‡ Y125 value, not a Y75 value (125% activity relative to no compound)

| Skeletal EC25 ([1]; Y75 value (no ‡ mark)) | Atrial EC25 ([2]; Y75 value (no ‡ mark)) | Ventricular EC25 ([3]; Y75 value (no ‡ mark)) | Skeletal EC25 ([1]; Y75 value) | Atrial EC25 [2, 4] | Ventricular EC25 ([3]; Y75 value) | Skeletal EC25 [1, 5] | Ventricular EC25 [3, 5] | Structure (SMILES) |
| --- | --- | --- | --- | --- | --- | --- | --- | --- |
| 0.26 µM | 0.45 µM | 3.02 µM | – | – | – | – | – | Cc1c(CC(=O)N[C@@H](C)c2ncc(C#N)cn2)c(=O)[nH]c2ccc(F)c(C3CC3)c12 (single isomer, unassigned) [compound 2060] |
| – | – | – | 0.87 µM | 1.22 µM | 13.14 µM | – | – | Cc1nccc2[nH]c(=O)c(CC(=O)N[C@H]3c4c(F)cc(F)cc4OC3(C)C)c(C)c12 (single isomer, unassigned) [compound 189] |
| – | – | – | 100.00 µM | 100.00 µM | 100.00 µM | – | – | Cc1nccc2[nH]c(=O)c(CC(=O)N[C@@H](CO)c3ccccn3)c(C)c12 (single isomer, unassigned) [compound 317] |
| – | – | – | 0.09 µM | 0.31 µM | 2.51 µM | – | – | Cc1nccc2[nH]c(=O)c(CC(=O)N[C@@H]3CNc4cc(F)cc(F)c43)c(C)c12 (single isomer, unassigned) [compound 181] |
| 0.08 µM | 0.04 µM | 0.09 µM | – | – | – | – | – | Cc1c(CC(=O)N[C@@H](C)c2ncc(C#N)cc2F)c(=O)[nH]c2ccc(F)c(Cl)c12 (single isomer, unassigned) [compound 2052] |
| – | – | – | 4.20 µM | 8.21 µM | 34.95 µM | – | – | Cc1c(CC(=O)N[C@H](CO)c2ccc(F)cc2F)c(=O)[nH]c2ccnc(C#N)c12 [compound 229] |
| 0.11 µM | 0.57 µM | 0.58 µM | – | – | – | – | – | Cc1nc(C#N)cnc1[C@H](C)NC(=O)C(F)(F)c1c(C)c2cc(F)ccc2[nH]c1=O (single isomer, unassigned) [compound 2568] |
| 100.00 µM | 53.69 µM | 89.23 µM | – | – | – | – | – | Cc1c(CC(=O)N[C@@H](C)c2ccc(C#N)cn2)c(=O)[nH]c2cc(F)ccc12 [compound 1073] |
| – | – | – | 2.47 µM | 100.00 µM | 34.76 µM | – | – | Cc1c(CC(=O)N[C@H](C)c2ccc(F)cc2F)c(=O)[nH]c2ccnc(C#N)c12 [compound 269] |
| – | – | – | 4.03 µM | 0.80 µM | 1.48 µM | – | – | Cc1ccc2[nH]c(=O)c(CC(=O)N[C@H](C)c3ncc(C#N)cc3F)c(C)c2n1 [compound 468] |
| – | – | – | 2.87 µM | 8.52 µM | 11.53 µM | – | – | Cc1nccc2[nH]c(=O)c(CC(=O)N[C@H](CO)c3ccc(C#N)cc3F)c(C)c12 (single isomer, unassigned) [compound 238] |
| 100.00 µM | 4.71 µM | 100.00 µM | – | – | – | – | – | Cc1c(C2(C(=O)N[C@H]3CCc4cc(C#N)cnc43)CC2)c(=O)[nH]c2ccc(F)c(F)c12 (single isomer, unassigned) [compound 4804] |
| – | – | – | 0.03 µM | 0.06 µM | 0.33 µM | – | – | COc1nccc2[nH]c(=O)c(CC(=O)N[C@@H](C)c3ccc(F)cc3F)c(C)c12 [compound 385] |
| – | – | – | 8.74 µM | 100.00 µM | 100.00 µM | – | – | C[C@H](NC(=O)Cc1c(C2CC2)c2cnccc2[nH]c1=O)c1ccc(C#N)cn1 [compound 141] |
| – | – | – | 100.00 µM | 1.53 µM | 30.78 µM | – | – | Cc1c(CC(=O)N[C@@H](C)c2ccc(C#N)cn2)c(=O)[nH]c2ccc(C(F)(F)F)nc12 [compound 460] |
| – | – | – | 100.00 µM | 28.27 µM | 63.17 µM | – | – | Cc1nccc2[nH]c(=O)c(CC(=O)N[C@H](C)c3ncc(C#N)cn3)c(C)c12 [compound 482] |

| Skeletal EC25 ([1]; Y75 value (no ‡ mark)) | Atrial EC25 ([2]; Y75 value (no ‡ mark)) | Ventricular EC25 ([3]; Y75 value (no ‡ mark)) | Skeletal EC25 ([1]; Y75 value) | Atrial EC25 [2, 4] | Ventricular EC25 ([3]; Y75 value) | Skeletal EC25 [1, 5] | Ventricular EC25 [3, 5] | Structure (SMILES) |
| --- | --- | --- | --- | --- | --- | --- | --- | --- |
| 100.00 µM | 100.00 µM | 100.00 µM | – | – | – | – | – | C[C@H](NC(=O)C1(c2cc3c(F)c(F)ccc3[nH]c2=O)CC1)c1nccc(C#N)n1 (single isomer, unassigned) [compound 2506] |
| – | – | – | 0.04 µM | 0.21 µM | 11.67 µM | – | – | CCCOc1nccc2[nH]c(=O)c(CC(=O)N[C@@H](C)c3ccc(F)cc3F)c(C)c12 [compound 384] |
| 0.05 µM | 0.06 µM | 0.09 µM | – | – | – | – | – | Cc1c(F)ccc2[nH]c(=O)c(CC(=O)N[C@@H](C)c3ncc(F)cc3F)c(C#N)c12 [compound 1148] |
| – | – | – | 0.40 µM | 9.38 µM | 100.00 µM | – | – | CC(C(=O)N[C@@H](C)c1ccc(F)cc1F)c1cc2c(I)nccc2[nH]c1=O (stereo partly drawn) [compound 362] |
| 100.00 µM | 14.39 µM | 100.00 µM | – | – | – | – | – | Cc1c(C(F)(F)C(=O)N[C@H](C)c2cccc(C#N)n2)c(=O)[nH]c2ccc(F)cc12 (single isomer, unassigned) [compound 2565] |
| 0.05 µM | 0.04 µM | 0.28 µM | – | – | – | – | – | Cc1c([C@@H](C)C(=O)N[C@@H](C)c2ccc(F)cc2F)c(=O)[nH]c2ccc(F)c(F)c12 (single isomer, unassigned) [compound 108] |
| 0.06 µM | 0.18 µM | 0.68 µM | – | – | – | – | – | Cc1c(CC(=O)N[C@H](C)c2ccc(C#N)cn2)c(=O)[nH]c2ccc(F)c(C#N)c12 [compound 49] |
| – | – | – | 100.00 µM | 8.11 µM | 45.62 µM | – | – | Cc1nccc2[nH]c(=O)c(CC(=O)N[C@@H]3c4c(F)cc(F)cc4OC3(C)C)c(C)c12 (single isomer, unassigned) [compound 190] |
| – | – | – | 0.40 µM | 4.05 µM | 5.93 µM | – | – | C[C@@H](NC(=O)Cc1cc2c(C#N)nccc2[nH]c1=O)c1ccc(C#N)cn1 [compound 472] |
| – | – | – | 0.18 µM | 0.11 µM | 4.23 µM | – | – | Cc1nccc2[nH]c(=O)c([C@H](C)C(=O)N[C@@H](C)c3ccc(C#N)cc3F)c(C)c12 (single isomer, unassigned) [compound 196] |
| – | – | – | 100.00 µM | 100.00 µM | 100.00 µM | – | – | Cc1nccc2[nH]c(=O)c(CC(=O)N[C@@H](c3ccc(F)cc3F)C(C)(C)O)c(C)c12 (single isomer, unassigned) [compound 271] |
| 100.00 µM | 6.41 µM | 42.07 µM | – | – | – | – | – | Cc1cc(C#N)ccc1[C@H](C)NC(=O)Cc1c(O)c2cc(F)c(F)cc2[nH]c1=O [compound 1089] |
| – | 7.78 µM | – | – | – | – | 85.63‡ μM | 77.57‡ μM | Cc1c(C2(C(=O)N[C@@H](C)c3nccc(C#N)n3)CC2)c(=O)[nH]c2ccc(F)c(F)c12 (single isomer, unassigned) [compound 2510] |
| – | – | – | 0.08 µM | 0.15 µM | 0.31 µM | – | – | Cc1c(C(F)(F)C(=O)N[C@H](CO)c2ncc(C#N)cc2F)c(=O)[nH]c2ccnc(C#N)c12 (single isomer, unassigned) [compound 3502] |
| 37.46 µM | 100.00 µM | 100.00 µM | – | – | – | – | – | Cc1c(C2(C(=O)N[C@@H](C)c3nccc(C#N)n3)CC2)c(=O)[nH]c2ccc(F)cc12 (single isomer, unassigned) [compound 4842] |
| 3.60 µM | 1.45 µM | 4.13 µM | – | – | – | – | – | Cc1nc(C#N)cnc1[C@@H](C)NC(=O)Cc1cc2cc(F)c(F)cc2[nH]c1=O (single isomer, unassigned) [compound 5] |

Source: patent publication US12448369B2 (Edgewise Therapeutics, Inc., priority 2023, dated 2025)
